Data: PubChem BioAssay AID2060512 (Molecular Pharmacology Branch, DTP, NCI, 2025)

Test system: 186277-243-T-J2-PDC complex spheroid viability
Test: Anticancer human tumor 186277-243-T-J2-PDC patient-derived colon adenocarcinoma cell line growth inhibition [GQUAD]
Conditions: for IC50: curve of first compound; for viability, T/C: stronger effect = lower value
Outline: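 Multi-cell-type spheroids of tumor cells with HUVEC and mesenchymal stem cells, treated with drug combinations. Concentrations descend in half-log steps from near clinical Cmax, or from 10 microM where Cmax is unknown; viability read-out.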

[1] = second compound 0.0316 µM, first compound 0.0316 µM
[2] = second compound 0.0316 µM, first compound 0.1 µM
[3] = second compound 0.0316 µM, first compound 0.316 µM
[4] = second compound 0.0316 µM, first compound 1 µM
[5] = second compound 0.0316 µM, first compound 3.16 µM
[6] = second compound 0.0316 µM, first compound 10 µM
[7] = second compound 0.1 µM, first compound 0.0316 µM
[8] = second compound 0.1 µM, first compound 0.1 µM
[9] = second compound 0.1 µM, first compound 0.316 µM
[10] = second compound 0.1 µM, first compound 1 µM
[11] = second compound 0.1 µM, first compound 3.16 µM
[12] = second compound 0.1 µM, first compound 10 µM
[13] = second compound 0.316 µM, first compound 0.0316 µM
[14] = second compound 0.316 µM, first compound 0.1 µM
[15] = second compound 0.316 µM, first compound 0.316 µM
[16] = second compound 0.316 µM, first compound 1 µM
[17] = second compound 0.316 µM, first compound 3.16 µM
[18] = second compound 0.316 µM, first compound 10 µM
[19] = second compound 1 µM, first compound 0.0316 µM
[20] = second compound 1 µM, first compound 0.1 µM
[21] = second compound 1 µM, first compound 0.316 µM
[22] = second compound 1 µM, first compound 1 µM
[23] = second compound 1 µM, first compound 3.16 µM
[24] = second compound 1 µM, first compound 10 µM
[25] = second compound 3.16 µM, first compound 0.0316 µM
[26] = second compound 3.16 µM, first compound 0.1 µM
[27] = second compound 3.16 µM, first compound 0.316 µM
[28] = second compound 3.16 µM, first compound 1 µM
[29] = second compound 3.16 µM, first compound 3.16 µM
[30] = second compound 3.16 µM, first compound 10 µM
[31] = second compound 10 µM, first compound 0.0316 µM
[32] = second compound 10 µM, first compound 0.1 µM
[33] = second compound 10 µM, first compound 0.316 µM
[34] = second compound 10 µM, first compound 1 µM
[35] = second compound 10 µM, first compound 3.16 µM
[36] = second compound 10 µM, first compound 10 µM
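Note: spheroids exposed to drugs for 7 days.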
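Throughout, for viability, T/C: 100% = DMSO vehicle control viability.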

COc1ccc([C@@H](O)c2cc(-c3ncnc4cc(N5CCOCC5)ccc34)c(F)cc2Cl)nn1 + Cc1cnc(CNC(=O)c2c(=O)c3ccc(N4CCCN(C)CC4)nc3n3c2sc2ccccc23)cn1 gave an IC50 (second compound 0.0316 µM) of 1880 nM, an IC50 (second compound 0.1 µM) of 1370 nM and an IC50 (second compound 0.316 µM) of 708 nM. It also gave an IC50 (second compound 1 µM) of 397 nM, an IC50 (second compound 3.16 µM) of 129 nM and an IC50 (second compound 10 µM) of under 31.6 nM. The viability, T/C [1] was 94.7%, the viability, T/C [2] was 100% and the viability, T/C [3] was 97.5%. The viability, T/C [4] was 59%, the viability, T/C [5] was 42.5% and the viability, T/C [6] was 17.5%. The viability, T/C [7] was 86.7%, the viability, T/C [8] was 81.3% and the viability, T/C [9] was 69.9%. The viability, T/C [10] was 56.6%, the viability, T/C [11] was 34.8% and the viability, T/C [12] was 14.3%. For the same compound, the viability, T/C [13] was 72.3%, the viability, T/C [14] was 67% and the viability, T/C [15] was 60.4%. It also gave a viability, T/C [16] of 42.8%, a viability, T/C [17] of 32.3% and a viability, T/C [18] of 7.31%. For the same compound, the viability, T/C [19] was 55.5%, the viability, T/C [20] was 61.1% and the viability, T/C [21] was 55.8%. The viability, T/C [22] was 34.9%, the viability, T/C [23] was 23.5% and the viability, T/C [24] was 6.14%. The viability, T/C [25] was 57.2%, the viability, T/C [26] was 49.1% and the viability, T/C [27] was 45.6%. The viability, T/C [28] was 34.2%, the viability, T/C [29] was 26.6% and the viability, T/C [30] was 5.25%. It also gave a viability, T/C [31] of 46.4%, a viability, T/C [32] of 42.2% and a viability, T/C [33] of 45%. The viability, T/C [34] was 34.5%, the viability, T/C [35] was 22.2% and the viability, T/C [36] was 4.67%.

Nc1ccn(C2OC(CO)C(O)C2(F)F)c(=O)n1 (stereo unspecified) + CN(C)c1ccc(Nc2c3ccc(NC(=O)CCN4CCCC4)cc3nc3cc(NC(=O)CCN4CCCC4)ccc23)cc1 showed an IC50 (second compound 0.0316 µM) of under 31.6 nM, an IC50 (second compound 0.1 µM) of under 31.6 nM and an IC50 (second compound 0.316 µM) of under 31.6 nM. It also gave an IC50 (second compound 1 µM) of under 31.6 nM, an IC50 (second compound 3.16 µM) of under 31.6 nM and an IC50 (second compound 10 µM) of under 31.6 nM. The viability, T/C [1] was 10.1%, the viability, T/C [2] was 9.64% and the viability, T/C [3] was 9.07%. It also gave a viability, T/C [4] of 7.19%, a viability, T/C [5] of 8.19% and a viability, T/C [6] of 8.56%. It also gave a viability, T/C [7] of 10.4%, a viability, T/C [8] of 7.92% and a viability, T/C [9] of 8%. It also gave a viability, T/C [10] of 7.8%, a viability, T/C [11] of 8.64% and a viability, T/C [12] of 8.31%. For the same compound, the viability, T/C [13] was 10.9%, the viability, T/C [14] was 7.8% and the viability, T/C [15] was 7.03%. The viability, T/C [16] was 7%, the viability, T/C [17] was 8.54% and the viability, T/C [18] was 8.47%. It also gave a viability, T/C [19] of 8.71%, a viability, T/C [20] of 7.38% and a viability, T/C [21] of 6.7%. It also gave a viability, T/C [22] of 6.93%, a viability, T/C [23] of 8.1% and a viability, T/C [24] of 7.47%. For the same compound, the viability, T/C [25] was 8.12%, the viability, T/C [26] was 7.76% and the viability, T/C [27] was 7.81%. For the same compound, the viability, T/C [28] was 7.28%, the viability, T/C [29] was 8% and the viability, T/C [30] was 7.61%. The viability, T/C [31] was 8.33%, the viability, T/C [32] was 7.59% and the viability, T/C [33] was 7.12%. It also gave a viability, T/C [34] of 6.96%, a viability, T/C [35] of 7.9% and a viability, T/C [36] of 7.91%.

In the case of Cc1cccc(N(C)C(=O)C2C(O)CCN2c2nc(C)cc(C(F)(F)F)c2C#N)c1 (stereo unspecified) + Cc1cnc(CNC(=O)c2c(=O)c3ccc(N4CCCN(C)CC4)nc3n3c2sc2ccccc23)cn1, the IC50 (second compound 0.0316 µM) is reported as over 10000 nM, the IC50 (second compound 0.1 µM) is reported as over 10000 nM and the IC50 (second compound 0.316 µM) is reported as over 10000 nM. It also gave an IC50 (second compound 1 µM) of over 10000 nM, an IC50 (second compound 3.16 µM) of under 31.6 nM and an IC50 (second compound 10 µM) of under 31.6 nM. The viability, T/C [1] was 107%, the viability, T/C [2] was 110% and the viability, T/C [3] was 109%. It also gave a viability, T/C [4] of 100%, a viability, T/C [5] of 102% and a viability, T/C [6] of 117%. It also gave a viability, T/C [7] of 92.8%, a viability, T/C [8] of 93.3% and a viability, T/C [9] of 97.4%. The viability, T/C [10] was 105%, the viability, T/C [11] was 94.8% and the viability, T/C [12] was 78.8%. The viability, T/C [13] was 73%, the viability, T/C [14] was 84.1% and the viability, T/C [15] was 75.1%. For the same compound, the viability, T/C [16] was 71.7%, the viability, T/C [17] was 76.6% and the viability, T/C [18] was 88.5%. For the same compound, the viability, T/C [19] was 51.6%, the viability, T/C [20] was 70.4% and the viability, T/C [21] was 68.6%. It also gave a viability, T/C [22] of 59.5%, a viability, T/C [23] of 64.9% and a viability, T/C [24] of 65%. For the same compound, the viability, T/C [25] was 42.2%, the viability, T/C [26] was 52.2% and the viability, T/C [27] was 47.9%. For the same compound, the viability, T/C [28] was 47.1%, the viability, T/C [29] was 52.9% and the viability, T/C [30] was 51.9%. The viability, T/C [31] was 45.3%, the viability, T/C [32] was 45.9% and the viability, T/C [33] was 38%. It also gave a viability, T/C [34] of 41.6%, a viability, T/C [35] of 53.1% and a viability, T/C [36] of 51.4%.
